Consider three compounds from ChEMBL document CHEMBL4145634, “Discovery of Janus Kinase 2 (JAK2) and Histone Deacetylase (HDAC) Dual Inhibitors as a Novel Strategy for the Combinational Treatment of Leukemia and Invasive Fungal Infections” (J Med Chem, 2018).

For data set [1], the system named is HEL. Briefly: Cell cycle arrest in human HEL cells assessed as accumulation at G2/M phase at 5 uM after 48 hrs propidium iodide staining based flow cytometry (reference value: 9.31%). The class given is functional. In general terms: Flow cytometry measures light scatter and fluorescence of single cells or particles in a stream.
The subject of data set [2] is Candida albicans. The experiment in a line: Antibiofilm activity against FLC resistant Candida albicans 0304103 assessed as inhibition of biofilm formation pre-incubated with 64 ug/ml FLC for 90 mins followed by further incubation with compound at 16 ug/ml for 24 hrs by XTT reduction assay. The class given is functional. (Tetrazolium assays rely on reduction of a dye to a coloured formazan, in cell work by metabolically active cells.)

A short description of data set [3]: Cmax in Sprague-Dawley rat at 10 mg/kg, ip by LC-MS/MS analysis. The class given is ADME, organism-based. More on the design: dose 10 mg/kg, route intraperitoneal. The following applies: in vivo.
The next data set has as its system Rattus norvegicus. The experiment in a line: Clearance in Sprague-Dawley rat at 10 mg/kg, ip by LC-MS/MS analysis. Format: ADME, organism-based. The following applies: in vivo.
For data set [4], the system named is HEL. Briefly: Cell cycle arrest in human HEL cells assessed as accumulation at G2/M phase at 1 uM after 48 hrs propidium iodide staining based flow cytometry (reference value: 9.32%). Format: functional.
Data set [5] is described as follows: Half life in Sprague-Dawley rat at 10 mg/kg, ip by LC-MS/MS analysis. As to conditions: in vivo. The class given is ADME, organism-based.
Data set [6] relates to HEL. The experiment in a line: Antitumor activity in human HEL cells xenografted in SCID mouse assessed as increase in mouse survival at 10 mg/kg, ip qd measured on day 32. The class given is functional. The following applies: 768 h. (In xenograft studies the graft and the host belong to different species.)
Data set [7] in a line: Tmax in Sprague-Dawley rat at 10 mg/kg, ip by LC-MS/MS analysis. The class given is ADME, organism-based. As to conditions: in vivo.
Data set [8] concerns Candida albicans. Briefly: Synergistic antifungal activity against FLC resistant Candida albicans 100 assessed as FIC index after 48 hrs by checkerboard microdilution method. The class given is functional.
For data set [9], the system named is Candida albicans. Briefly: microbe, parasite or virus in culture. The following applies: Candida albicans, 0710922, 48 h. The class given is functional.
Description: Antifungal activity against FLC resistant Candida albicans 0710922 after 48 hrs by checkerboard microdilution method
The nature of data set [10]: AUC (0 to infinity) in Sprague-Dawley rat at 10 mg/kg, ip by LC-MS/MS analysis. Format: ADME, organism-based. More on the design: dose 10 mg/kg, route intraperitoneal, time infinity. As to conditions: in vivo.
Data set [11] concerns HEL. The experiment in a line: Antitumor activity in human HEL cells xenografted in SCID mouse assessed as mouse survival time at 10 mg/kg, ip qd. The class given is functional.
For data set [12], the system named is HEL. Briefly: Cell cycle arrest in human HEL cells assessed as accumulation at S phase at 1 uM after 48 hrs propidium iodide staining based flow cytometry relative to control. Format: functional.
For data set [13], the system named is HEL. Briefly: Cell cycle arrest in human HEL cells assessed as accumulation at S phase at 5 uM after 48 hrs propidium iodide staining based flow cytometry relative to control. The class given is functional.
For data set [14], the system named is HEL. Briefly: Cell cycle arrest in human HEL cells assessed as accumulation at S phase at 10 uM after 48 hrs propidium iodide staining based flow cytometry relative to control. The class given is functional.
The subject of data set [15] is HEL. Briefly: Antitumor activity against human HEL cells xenografted in BALB/C nude mouse assessed as tumor growth at 10 mg/kg, ip bid treated for 21 consecutive days relative to control. The class given is functional.
Data set [16] relates to HEL. Briefly: Antitumor activity against human HEL cells xenografted in BALB/C nude mouse assessed as tumor growth inhibition at 10 mg/kg, ip bid treated for 21 consecutive days relative to control. Format: functional. As to conditions: read-out: TGI.

`CS(=O)(=O)Nc1ccc(-c2ccnc(Nc3ccc(N4CCC(C(=O)Nc5ccc(/C=C/C(=O)NO)cc5)CC4)cc3)n2)cc1`: the values for the Activity with HEL [1] and in the data set with HEL [4] were 28.14% and 11.75%, respectively. For the same compound, the “inhibition (INH)” value in the data set with Candida albicans [2] is 30%. The Cmax – broadly, the maximum level reached in the sampled fluid or tissue – in data set [3] is 1600 ng/mL. Moreover, in the data set on Rattus norvegicus, the clearance was determined as 37.4 mL/min/kg. Also, the half-life – broadly, how long it takes for the measured level to halve – in [5] was 5.14 h. Also, in the data set with HEL [6], the survival at 10 mg/kg was found to be 37.5%. Also, in data set [7], the time of peak concentration (Tmax) – broadly, the time from dosing to the highest level – amounted to 0.5 h. The “fractional inhibitory concentration index (FICI)” value in the data set on Candida albicans [8] is 0.07. In the data set on Candida albicans [9], this compound yielded an MIC50 greater than 64 µg/mL. In addition, the total exposure AUC(0-inf) (in general, total exposure, with the tail of the curve extrapolated) in data set [10] is 4470 ng·h/mL.

In the case of `CS(=O)(=O)Nc1ccc(-c2ccnc(Nc3ccc(N4CCC(C(=O)NCCCCCCCC(=O)NO)CC4)cc3)n2)cc1`, the Activity in the data set with HEL [1] is on record as 8.12%; in the data set with HEL [4], 8.23%; in the data set on HEL [12] it was 25.56%; in the data set on HEL [13], 34.37%. For the same compound, the “fractional inhibitory concentration index (FICI)” value with Candida albicans [8] was 0.13. The same compound registered an MIC50 against Candida albicans [9] greater than 64 µg/mL. Further, in the data set on HEL [11], the Survival worked out at 27 days.

Turning to `O=C(NO)c1ccc(-c2ccnc(Nc3ccc(N4CCOCC4)cc3)n2)cc1`, the Activity in the data set with HEL [14] stood at 48.68%; in the data set on HEL [13] it was 18.9%. The “inhibition (INH)” value in the data set on Candida albicans [2] was found to be 30%. For the same compound, in the data set on HEL [15], the T/C (usually the ratio of treated to control) is 41.1%. Also, in the data set on Candida albicans [8], the “fractional inhibitory concentration index (FICI)” value stood at 0.13. In the data set on Candida albicans [9], the MIC50 is greater than 64 µg/mL. The inhibition in vivo at 10 mg/kg in the data set with HEL [16] stood at 59.9%. In addition, the Survival in the data set with HEL [11] was found to be 27 days.
